Measured values: PubChem BioAssay AID449764 (Southern Research Specialized Biocontainment Screening …, 2010)

Tested on: Mycobacterium tuberculosis H37Rv growth inhibition, no glycerol
Test: Mycobacterium tuberculosis H37Rv growth inhibition, no glycerol, confirmatory dose response (AID 449764);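 further: growth read after 7 days of incubation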
Details: for IC90: measured here: IC90 growth inhibition

SMILES	IC50	IC90
Oc1ccc2ccccc2c1N=Nc1nccs1	1.96 µM	3.06 µM
COc1cc2cc(C(c3nnnn3C(C)(C)C)N3CCc4ccccc43)c(=O)[nH]c2cc1OC (centres undefined)	–	> 100 µM
COc1ccc(C(C)=O)cc1COC(=O)c1ccc2ccccc2n1	60.3 µM	> 100 µM
Cc1ccc(C(=O)N/C(=C/c2ccc(-c3cc(C(F)(F)F)ccc3Cl)o2)C(=O)NCc2cccnc2)cc1	73.6 µM	> 100 µM
O=C(Nc1ccc(Cl)cc1)N1CCN(c2ccc3nnc(-c4ccc(F)cc4)n3n2)CC1	18.9 µM	51.8 µM
CN(C)CCOc1nc(-c2ccccc2)nc2c1oc1ccccc12	19.1 µM	25.6 µM
C/C(=N\NC(=S)NCC(C)(C)C)c1cc(F)cc(F)c1O	9.33 µM	37.1 µM
CCN(CC(=O)NCc1cccs1)C(=O)c1ccc([N+](=O)[O-])o1	91.9 µM	> 100 µM
O=[N+]([O-])c1cccnc1N1CCC(c2cc(-c3cccc(C(F)(F)F)c3)n[nH]2)CC1	21.5 µM	34.4 µM
Cc1ccc(CN2CCC(c3cc(-c4ccc(Cl)cc4)n[nH]3)CC2)cc1	11.7 µM	18.2 µM
COc1ccc(C)cc1Nc1n[n+](-c2ccccc2)c(-c2c(Cl)cccc2Cl)s1	18.4 µM	24.9 µM
CCc1nnc(N/N=C/c2cc(C)c(C)cc2C)n1N	5.95 µM	6.55 µM
O=C(Nc1nc2ccc(SC(F)F)cc2s1)c1ccc(NS(=O)(=O)c2ccc(F)c(F)c2)cc1	11.9 µM	18.9 µM
Cc1c(CN2CCC(CO)(Cc3cccc(C(F)(F)F)c3)CC2)c2ccccc2n1C	31.2 µM	39.6 µM
COc1ccc(C2CC(=O)C3=C(C2)NC(C)=C(C#N)C3c2ccc(N(C)C)cc2)cc1 (centres undefined)	22.2 µM	35.6 µM
COc1ccccc1-c1cc(C(=O)NC2CCN(C)CC2)c2ccc(Cl)c(C)c2n1	83.5 µM	> 100 µM
CC(=O)C1=C(C)NC(SCC(=O)c2ccc(F)cc2)=C(C#N)C1c1ccco1 (centres undefined)	32.7 µM	49.8 µM
O=C(OCC(=O)N1CCC(c2ccccc2)=N1)c1ccc(Cl)s1	97.6 µM	> 100 µM
Cc1cc(N2CCC(C)CC2)nc(-n2nc(C)cc2C)n1	0.97 µM	2.97 µM
Cc1ccc(-c2ccnc(=S)[nH]2)cc1	55.9 µM	> 100 µM
COC(=O)C1C2c3ccccc3OC1(C)N=c1s/c(=C/c3cnn(C)c3C)c(=O)n12 (centres undefined)	6.44 µM	41.1 µM
CSc1nsc(/C=C/Nc2ccc(O)cc2C)c1C#N	44.5 µM	49.6 µM

SMILES	IC50	IC90
N#CC(C#N)=C(N)CSc1cccc[n+]1[O-]	43.6 µM	49 µM
S=C(Nc1ccc(Cl)cc1)NC1CC2CCC(C1)N2Cc1ccccc1 (centres undefined)	63.1 µM	95.6 µM
O=C(OCc1csc(Nc2ccccc2)n1)c1ccc(Cl)cc1	46.4 µM	53 µM
Cc1ccc(C(=O)c2oc3ccc(Cl)cc3c2NC(=O)CN2CCN(C)CC2)cc1	14.9 µM	19.6 µM
COc1ccc(-c2nsc3c(N4CCCCC4C)ncnc23)cc1 (centres undefined)	96.6 µM	> 100 µM
COc1cc(/C=N/NC(=O)COc2ccc(C)cc2)ccc1OC(=O)c1cccs1	25.5 µM	30.1 µM
C[C@]12C=CC(=O)C=C1CC[C@@H]1C2=CC[C@]2(C)[C@@H](C(=O)CN3CCN(c4cc(N5CCCC5)nc(N5CCCC5)n4)CC3)CC[C@@H]12	38.5 µM	55.9 µM
Cc1ccc(-n2cccc2C(=S)N=P(N(C)C)(N(C)C)N(C)C)cc1	24.6 µM	26.1 µM
CCN1CSC(=S)N(Cc2ccccc2)C1	32.5 µM	60.7 µM
COc1ccccc1NC(=O)C(C)OC(=O)/C=C/c1ccc2ccccc2n1 (centres undefined)	6.99 µM	13.1 µM
CCc1ccc(-c2nn(-c3ccccc3)cc2CSC(=N)N)cc1	16.5 µM	20.4 µM
CC(C)(Oc1ccc(Cl)cc1)C(=O)OCC(=O)N1CCN(c2ccccc2)CC1	52 µM	80.9 µM
Cn1cnc([N+](=O)[O-])c1Sc1ccc(Br)cc1	19.6 µM	26.1 µM
N#Cc1ccc(OCC(O)CN2CCN(c3ncc(C(F)(F)F)cc3Cl)CC2)cc1 (centres undefined)	15.4 µM	24.3 µM
Cc1nn(-c2ccccc2)c(Cl)c1C(=O)Nc1nnc(C2CCCCC2)s1	–	> 50 µM
O=C(CN1CCN(C(=O)COc2cccc(F)c2)CC1)Nc1ccc(Cl)c(C(F)(F)F)c1	50.4 µM	57.4 µM
Cc1ccccc1Nc1nc(N)nc(COC(=O)c2ccc([N+](=O)[O-])o2)n1	88.7 µM	> 100 µM
CCCNC(=S)Nc1ccc(Nc2ccccc2)cc1	25 µM	44.5 µM
Cc1cc(N2CCN(c3ccc(C(F)(F)F)cc3[N+](=O)[O-])CC2)c2ccccc2n1	22.2 µM	24.9 µM
CCOc1ccc2nc(N/C(N)=N/C(=S)Nc3cccc(C)c3)nc(C)c2c1	36 µM	> 100 µM
Cc1ccc(C)c(C2C(=O)c3ccccc3C2=O)c1	16.5 µM	46.8 µM
C/C(=N\NC(N)=S)C1C2C3CC4C5CC(C42)C1C53 (centres undefined)	22.1 µM	31.8 µM

SMILES	IC50	IC90
CC(C)n1cnc2c(NCc3ccccc3)cc(Cc3ccc(F)cc3)cc21	34.4 µM	49.3 µM
c1ccc2nc(-c3ccc(-n4ccnc4)cc3)ccc2c1	31 µM	42.5 µM
CCN1CCN(c2oc(COc3ccc(-c4ccccc4)cc3)nc2C#N)CC1	36.4 µM	47.6 µM
C/C(=N/NC(=O)c1ccccn1)c1c[nH]c2ccccc12	10.6 µM	21.4 µM
Cc1ccccc1Cn1cc(NC(=O)c2noc(C(C)C)c2[N+](=O)[O-])cn1	5.01 µM	8.45 µM
COc1cccc(C(=O)NC2CC3CCCC(C2)N3CC(=O)Nc2ccc(N(C)C)cc2)c1 (centres undefined)	21.8 µM	24.4 µM
NC(=O)c1cccn1-c1ncc(C(F)(F)F)cc1Cl	14.4 µM	28.1 µM
c1ccc2c(c1)ncn2CCCCOc1ccc2c(c1)CCC2	23.9 µM	27.4 µM
N/C(=N\NC(=O)c1sccc1OCc1ccc(Cl)cc1Cl)c1ccccn1	32.3 µM	39.4 µM
CCN(C[C@H]1N[C@@](Cc2ccccc2)(C(=O)OC)[C@H]2C(=O)N(Cc3ccccc3)C(=O)[C@@H]12)C(=O)Nc1ccc(C(F)(F)F)cc1	8.06 µM	9.81 µM
CCCOc1ccc(-c2cnc(SCC(N)=O)nc2N)cc1	42.3 µM	> 100 µM
C#CCOCCOCCOCCNc1nc(N2CCN(C(=O)CCCCCCCCCCNC(=O)[C@H](CCCCN)n3cc(CCCC(=O)O)nn3)CC2)nc(N2CCN(C(=O)CCCCCCCCCCNC(=O)[C@H](CCCN=C(N)N)n3cc(C[C@@H](C)CC)nn3)CC2)n1	6.73 µM	9.93 µM
CCOC(=O)c1ccc(Oc2nc(NC(C)(C)C)nc(N(C)C)n2)cc1	58.1 µM	> 100 µM
CCOCCN1CCN(c2c(CC)c(C)nc3cc(-c4cc(OC)cc(OC)c4)nn23)CC1	24.5 µM	38.2 µM
CCCCCCCCn1c2c(c(=N)c3c1CCC3)CCCC2	22.6 µM	25.8 µM
CCOC(=O)c1ccc(-c2c(-c3ccc4c(c3)OCO4)noc2C)cc1F	53.5 µM	> 100 µM
S=C(Nc1ccc(Cl)cc1)Nc1cccc2cnccc12	5.63 µM	5.92 µM
COc1ccc(-c2nnc3sc(C4CCCCC4)nn23)cc1OC	45.6 µM	51.6 µM
CCn1c2ccccc2c2cc(CNCc3ccc(OC)cc3OC)ccc21	12.2 µM	14 µM
O=C1c2ccccc2CC1Sc1nnc(-c2ccncc2)o1 (centres undefined)	–	> 100 µM
Cc1ccc(C(=O)N2N=C(c3ccc(NS(C)(=O)=O)cc3)CC2c2cccs2)cc1 (centres undefined)	23.6 µM	37.5 µM
CC(C)NC(=S)N/N=C/c1cc(Br)ccc1O	29.5 µM	> 100 µM

SMILES	IC50	IC90
Cn1c(CNc2ccccc2O)nc2ccccc21	3.05 µM	3.36 µM
CCc1ccc(NCc2ccc(OC)c(Cn3ccnc3)c2)cc1	21.5 µM	23.7 µM
CCOC(=O)c1cc(/C(C)=N/OC(=O)c2ccc(C(C)(C)C)cc2)on1	22.9 µM	26.8 µM
CSc1ccccc1OCc1cc(C(=O)N2CCC(Oc3cccnc3)CC2)no1	28.3 µM	37.3 µM
CC(C)[C@H](CO)N(Cc1cccc(F)c1)c1nc(Nc2cccc(Cl)c2)c2ncn(C(C)C)c2n1	37.5 µM	57.4 µM
Cc1cc(C)n(-c2ccc(C(=O)Oc3ccc4c(c3)OCO4)cc2)n1	11.7 µM	> 100 µM
OCC(O)/C=N/Nc1nc(Nc2ccccc2)nc(Nc2ccccc2)n1 (centres undefined)	14 µM	24.1 µM
CO[C@@]12[C@H](COC(N)=O)C3=C(C(=O)C(C)=C(N)C3=O)N1C[C@@H]1N[C@@H]12	74.9 µM	> 100 µM
Cc1nc(-c2nc(-c3c(C(=O)NNC(=O)c4ccc(Cl)cc4)noc3C)cs2)cs1	24.7 µM	> 100 µM
CC(C)(C)c1ccc(OCCC(=O)OCC(=O)NC(=O)NC2CCCC2)cc1	11.8 µM	18.9 µM
CCc1ccc2c(c1)C1(C(=O)N2)N2CCCC2C(C(=O)c2ccc3ccccc3c2)C12C(=O)Nc1ccccc12 (centres undefined)	23.9 µM	36.2 µM
Cc1ncc(C23CC4CC(CC(C4)C2)C3)[nH]1	76.1 µM	96.7 µM
Cn1ncnc2c(=O)n(C)c(=O)nc1-2	2.84 µM	4.51 µM
O=C(Nc1nc2ccc(F)cc2s1)C1CCN(S(=O)(=O)c2cc([N+](=O)[O-])ccc2Cl)CC1	12 µM	17.6 µM
Cc1ccccc1Cn1ccc(=NCc2ccccc2)cc1	10.2 µM	14 µM
COc1ccc(C2=CC(c3c(C)nn(-c4ccccc4)c3Cl)n3nnnc3N2)cc1OC (centres undefined)	94.1 µM	> 100 µM
COc1cccc(Nc2ccc([N+](=O)[O-])c3nonc23)c1	9.9 µM	14.5 µM
C=CCNc1oc(-c2ccc(-c3ccccc3)cc2)nc1C#N	16.1 µM	19.6 µM
CN(C)c1ccc(/C=C2\N=C(C(C)(C)C)OC2=O)cc1	86 µM	> 100 µM
C/C(=N\Nc1ccc(S(=O)(=O)N2CCCCC2)cn1)c1cccc(Br)c1	39.2 µM	> 100 µM
